# Experimental data as given in patent US9181218B2, “Compounds for improved stem cell differentiation into hepatocytes” (Hoffmann-La Roche Inc., priority 2013, dated 2015).
# System: interferon-stimulated genes (ISGs)
# Experiment: Microarray analysis of iCell Hepatocytes treated with the compound of example 1
# Assay type: cell-based, Human
# Excerpt: iCell Hepatocytes treated with the compound of example 1 results in the up and down-regulation of a host of genes; including a kinetic effect on interferon-stimulated gene (ISGs) expression. See FIGS. 15-I and 15-II, 16-I and 16-II and 18 and Table 1.
smiles,measurement,setting,value
"O=C(NCc1cccc(F)c1)c1cccc2nc(-c3c(NC[C@@H](O)c4ccccc4)cc[nH]c3=O)[nH]c12 [Example 1, 2-[4-((S)-2-hydroxy-2-phenyl-ethylamino)-2-oxo-1,2-dihydro-pyridin-3-yl]-3H-benzoimidazole-4-carboxylic acid 3-fluoro-benzylamide]",JAK2 Raw Est Fold Change,DAY 7,1.39
same,JUNB Raw Est Fold Change,DAY 7,−8.16
same,KIAA0040 Raw Est Fold Change,DAY 7,−1.76
same,KIF5C Raw Est Fold Change,DAY 7,−4.32
same,KPNB1 Raw Est Fold Change,DAY 7,−1.34
same,LRP4 Raw Est Fold Change,DAY 7,−2.80
same,LTBP2 Raw Est Fold Change,DAY 7,−2.94
same,LYN Raw Est Fold Change,DAY 7,−1.71
same,MAFB Raw Est Fold Change,DAY 7,6.31
same,MAFK Raw Est Fold Change,DAY 7,−1.70
same,MAP3K8 Raw Est Fold Change,DAY 7,−6.22
same,MAX Raw Est Fold Change,DAY 7,−1.95
same,MCL1 Raw Est Fold Change,DAY 7,−1.33
same,MSR1 Raw Est Fold Change,DAY 7,16.00
same,MT1F Raw Est Fold Change,DAY 7,2.56
same,MTHFD2L Raw Est Fold Change,DAY 7,−5.12
same,MTMR1 Raw Est Fold Change,DAY 7,−1.20
same,MYC Raw Est Fold Change,DAY 7,−7.27
same,MYD88 Raw Est Fold Change,DAY 7,1.19
same,MYOM2 Raw Est Fold Change,DAY 7,1.59
same,MYT1 Raw Est Fold Change,DAY 7,−3.88
same,NEXN Raw Est Fold Change,DAY 7,−2.35
same,NFE2 Raw Est Fold Change,DAY 7,−5.79
same,NFIL3 Raw Est Fold Change,DAY 7,−1.60
same,NGFB Raw Est Fold Change,DAY 7,1.97
same,NLRC5 Raw Est Fold Change,DAY 7,−3.27
same,NMI Raw Est Fold Change,DAY 7,1.34
same,NPAS2 Raw Est Fold Change,DAY 7,−4.43
same,OPTN Raw Est Fold Change,DAY 7,1.28
same,PADI2 Raw Est Fold Change,DAY 7,4.13
same,PARP14 Raw Est Fold Change,DAY 7,1.33
same,PCK2 Raw Est Fold Change,DAY 7,8.00
same,PCMT1 Raw Est Fold Change,DAY 7,−1.45
same,PCTK3 Raw Est Fold Change,DAY 7,2.27
same,PDGFRL Raw Est Fold Change,DAY 7,−3.16
same,PEX26 Raw Est Fold Change,DAY 7,1.38
same,PHF11 Raw Est Fold Change,DAY 7,−2.75
same,PHF15 Raw Est Fold Change,DAY 7,−1.69
same,PHLDA1 Raw Est Fold Change,DAY 7,−9.08
same,PI4K2B Raw Est Fold Change,DAY 7,1.41
same,PIM3 Raw Est Fold Change,DAY 7,−2.64
same,PLAC8 Raw Est Fold Change,DAY 7,5.43
same,PLAUR Raw Est Fold Change,DAY 7,−2.56
same,PLSCR1 Raw Est Fold Change,DAY 7,−2.59
same,PML Raw Est Fold Change,DAY 7,−2.58
same,PON1 Raw Est Fold Change,DAY 7,5.18
same,PON2 Raw Est Fold Change,DAY 7,−1.39
same,PPIC Raw Est Fold Change,DAY 7,−2.26
same,PSMB10 Raw Est Fold Change,DAY 7,1.91
same,PTEN Raw Est Fold Change,DAY 7,−1.44
same,PUS1 Raw Est Fold Change,DAY 7,−1.41
same,PXK Raw Est Fold Change,DAY 7,−1.23
same,RAB27A Raw Est Fold Change,DAY 7,−5.10
same,RAN Raw Est Fold Change,DAY 7,−1.29
same,RBMS1 Raw Est Fold Change,DAY 7,−3.48
same,RECQL Raw Est Fold Change,DAY 7,−1.66
same,RIPK2 Raw Est Fold Change,DAY 7,−1.45
same,RPL22 Raw Est Fold Change,DAY 7,3.02
same,RSAD2 Raw Est Fold Change,DAY 7,5.52
same,RXRA Raw Est Fold Change,DAY 7,1.28
same,SAA1 Raw Est Fold Change,DAY 7,−1.51
same,SAMD9L Raw Est Fold Change,DAY 7,2.42
same,SCARB2 Raw Est Fold Change,DAY 7,1.64
same,SDC2 Raw Est Fold Change,DAY 7,1.66
same,SELL Raw Est Fold Change,DAY 7,3.83
same,SELP Raw Est Fold Change,DAY 7,5.95
same,SERPINB9 Raw Est Fold Change,DAY 7,−1.86
same,SF3A1 Raw Est Fold Change,DAY 7,1.26
same,SFPQ Raw Est Fold Change,DAY 7,−1.57
same,SHMT2 Raw Est Fold Change,DAY 7,1.44
same,SLC7A5 Raw Est Fold Change,DAY 7,1.78
same,SLC10A1 Raw Est Fold Change,DAY 7,10.61
same,SLC15A2 Raw Est Fold Change,DAY 7,−1.52
same,SLC20A1 Raw Est Fold Change,DAY 7,1.90
same,SLC25A28 Raw Est Fold Change,DAY 7,−1.47
same,SLC30A1 Raw Est Fold Change,DAY 7,2.66
same,SLFN12 Raw Est Fold Change,DAY 7,−1.92
same,SOAT2 Raw Est Fold Change,DAY 7,11.97
same,SOCS1 Raw Est Fold Change,DAY 7,−42.96
same,SOCS3 Raw Est Fold Change,DAY 7,−17.74
same,SPSB1 Raw Est Fold Change,DAY 7,−2.63
same,SPTLC2 Raw Est Fold Change,DAY 7,−1.49
same,SRGAP2 Raw Est Fold Change,DAY 7,1.95
same,SSBP3 Raw Est Fold Change,DAY 7,1.49
same,SSR1 Raw Est Fold Change,DAY 7,−1.71
same,STAT1 Raw Est Fold Change,DAY 7,−4.03
same,STEAP4 Raw Est Fold Change,DAY 7,−1275.83
same,STK39 Raw Est Fold Change,DAY 7,−1.88
same,TAP1 Raw Est Fold Change,DAY 7,−1.72
same,TAP2 Raw Est Fold Change,DAY 7,−2.02
same,TARBP1 Raw Est Fold Change,DAY 7,−1.18
same,TCF7L2 Raw Est Fold Change,DAY 7,−1.57
same,TEAD4 Raw Est Fold Change,DAY 7,−6.47
same,TFDP2 Raw Est Fold Change,DAY 7,1.26
same,TFEC Raw Est Fold Change,DAY 7,7.83
same,TFPI Raw Est Fold Change,DAY 7,−1.80
same,THBD Raw Est Fold Change,DAY 7,−6.70
same,TIMP1 Raw Est Fold Change,DAY 7,−11.92
same,TMEM2 Raw Est Fold Change,DAY 7,−3.07
same,TMEM49 Raw Est Fold Change,DAY 7,−1.98
same,TNFSF14 Raw Est Fold Change,DAY 7,−2.68
same,TOR1B Raw Est Fold Change,DAY 7,−1.39
same,TPM1 Raw Est Fold Change,DAY 7,1.77
same,TRIB3 Raw Est Fold Change,DAY 7,1.84
same,TRIM14 Raw Est Fold Change,DAY 7,1.68
same,TXNIP Raw Est Fold Change,DAY 7,−7.72
same,UBE1L Raw Est Fold Change,DAY 7,1.65
same,UBE2S Raw Est Fold Change,DAY 7,−1.95
same,ULK4 Raw Est Fold Change,DAY 7,−4.12
same,UPP2 Raw Est Fold Change,DAY 7,16.78
same,USP25 Raw Est Fold Change,DAY 7,1.84
same,WARS Raw Est Fold Change,DAY 7,−1.50
same,WAS Raw Est Fold Change,DAY 7,3.44
same,XRCC6BP1 Raw Est Fold Change,DAY 7,1.33
same,ZC3HAV1 Raw Est Fold Change,DAY 7,−1.57
same,ZNF24 Raw Est Fold Change,DAY 7,−1.16
same,ZNF276 Raw Est Fold Change,DAY 7,1.44
same,ZNF313 Raw Est Fold Change,DAY 7,1.31
same,interferon-stimulated genes (ISGs) expression,"microarray heat map, FIG. 15",down-regulated interferon-stimulated genes (ISGs) as early as 2 hr
same,CREB3L1 expression,"microarray, FIG. 15",down-regulated as early as 2 hr post treatment
same,SLC10A1 expression,"microarray, FIG. 15",up-regulated at 7 day post-treatment
